In US20210386695A1 (priority 2020, published 2021):

Legend:
Assay type in all cases: cell-based
[1] = test system: 501Y-V2 variant of SARS-CoV-2 pseudo-particles; assay: microbe, parasite or virus in culture; details: Severe acute respiratory syndrome coronavirus 2, Vero C1008
[2] = test system: B.1.1.7 variant of SARS-CoV-2 pseudo-particles
[3] = test system: B.1.1.7 variant of SARS-CoV-2 pseudo-particles; assay: microbe, parasite or virus in culture; details: Severe acute respiratory syndrome coronavirus 2, Vero C1008
[4] = test system: B.1.1.7 variant of SARS-CoV-2 pseudo-particles; remark: listed apart in the source

CCN(CC)C(=S)SSC(=S)N(CC)CC [disulfiram]
EC50 [1]: 3.84 µM | block of viral pseudo-particles infection [2]: dose-dependent manner | EC50 [3]: 3.18 µM | inhibitory capacity in furin-expressing Vero E6 cells compared with Vero E6 cells [4]: similar
